Measurements from patent publication US20170114329A1, “SCALABLE ORGANOTYPIC MODELS OF TUMOR DORMANCY” (THE REGENTS OF THE UNIVERSITY OF CALIFORNIA, priority 2013, published 2017).
“Also recorded” adds a separate entry of the source.

Experiments:
Assay type in all cases: cell-based, human
Notch1 = Notch1 knockdown in E4ORF1-HUVEC, immunoblot; details: normalized to Lamin A/C
Source text: E4ORF1-HUVECs were infected at 5 MOI with custom-made lentiviruses (Sigma) containing shRNA targeting human Notch1 in a pLKO.1-puro-CMV-TagRFP vector. Empty vector was used as a control (shCtrl). Sequences for shRNA were as follows:
shNotch1-E4-ECs and shCtrl-E4-ECs were lysed in 2% SDS/PBS. Twenty μg of each lysate was then separated on a Tris-Glycine 4-20% gel. Notch1 was probed with a rabbit polyclonal antibody (AbCam ab27526, 1:500). The blot was stripped and re-probed with a rabbit polyclonal antibody to the nuclear membrane protein Lamin A/C, used here as a loading control (Santa Cruz Biotechnology sc-20681, 1:2000).

[1] = test system: E4-EC microvascular networks; assay: Neovascular tip number in microvascular niche cultures; details: shNotch1 E4-EC vs shCtrl, day 7
Method: (§1) Microvascular niche cultures were generated with modifications to a previously described protocol, described in Evensen, L., et al. Mural cell associated VEGF is required for organotypic vessel formation. PLoS One 4, e5798 (2009), hereby incorporated by reference in its entirety. LFs or MSCs were seeded alone at a density of 5×10^4 cells/well in 96-well culture plates or with mCherry-E4-ECs at a 5:1 ratio to generate lung-like or BoMa-like microvascular niches, respectively. Cells were suspended in EGM-2 at a concentration 5×10^4 cells/100 μl (stroma only) or 6×10^4 cells/100 μl (stroma+ECs). After depositing 100 μl of cellular suspension per well of a 96-well plate, plates were left undisturbed on a flat surface for 20 min to allow even cell seeding prior to incubation.
Network properties were counted manually using the “cell counter” application in ImageJ.
E4ORF1-HUVECs were infected at 5 MOI with custom-made lentiviruses (Sigma) containing shRNA targeting human Notch1 in a pLKO.1-puro-CMV-TagRFP vector. Empty vector was used as a control (shCtrl).

T4-2 cells = assay: Growth of YFP T4-2 breast cancer cells on lung stroma (LF) cultures; details: add-back to T4-2 cells plated on lung stroma without ECs; normalized to vehicle condition
Method: as §1
After 7 days, YFP tumor cells were suspended in unsupplemented DMEM/F12 (800 cells/ml). YFP tumor cells were seeded (100 μl/well) after washing cultures thrice with PBS. […]
A macro was written using NIH ImageJ open source software to remove bias from data quantification. […] The total area fraction of the 6×6 tiled image occupied by YFP cells was then calculated. […] For each image, the measured area fraction at day 10 was normalized by the corresponding day 0 value in order to account for any small variations in seeding density from well-to-well.

Row | Substance | endothelial cell Notch1 expression at the protein level (Notch1) | number of endothelial tips [1] | tumor cell growth (normalized tumor cell area fraction) (T4-2 cells)
1 | sh8393: shRNA targeting human Notch1, SEQ ID NO: 1, in pLKO.1-puro-CMV-TagRFP lentiviral vector (CCGGCTTTGTTTCAGGTTCAGTATTCTCGAGAATACTGAACCTGAAACAAAGTTTTT) | significantly reduced endothelial cell Notch1 expression | significant reduction in the number of endothelial tips | –
2 | thrombospondin-1 [TSP-1] | – | – | significant reduction in tumor cell growth; also recorded: sufficient to suppress BCC growth on lung stroma
